One data set has as its system P-glycoprotein (P-gp). Set-up: method as in PMID 31770456. The following applies: cited from earlier work.
The subject of a further data set is intratumoral PAR. Also on record: method as in PMID 26652717. The following applies: at 2 and 8 h time points, partial recovery at 24 h; cited from earlier work.
The next data set addresses PARP-1 (Homo sapiens, UniProt P09874). The data set is described as follows: Competitive binding assay with [3H]WC-DZ in U251MG cells. The following applies: for pseudoHill coefficient n′H: competitive binding vs [3H]WC-DZ in U251MG cells, Mean ± SEM, n = 3.
A further data set has as its system PC-3 prostate tumors. Briefly: Biodistribution of [18F]talazoparib in PC-3 tumor-bearing SCID mice. The following applies: for tumor uptake: PC-3 tumor. Type of data set: in vivo. An excerpt:
2.5. Xenograft Model The animal studies were approved by Washington University’s Institutional Animal Care and Use Committee (IACUC), Protocol #20-0214 approved 7 August 2020. The overall animal care was following The Guide for the Care and Use of Laboratory Animals from the National Research Council and the USDA Animal Care Resource Guide. Mature SCID mice from Charles River Laboratories were allowed to acclimate in an AALAC accredited housing facility for at least 1 week before tumor implantation for the biodistribution study. Male SCID mice (4 weeks old, n = 4/group, 2 groups), with 1 × 10^7 PC-3 prostate cancer cells implanted subcutaneously in the right shoulder grew for about 35 days before the radiotracer biodistribution studies. 2.6. Biodistribution Animals were intravenously injected with [^18F]talazoparib (120 µCi) in 10% ethanol/saline (100 µL) via the tail vein. At the specified time point (4 and 8 h), the mice were sacrificed, the blood, lungs, liver, spleen, kidneys, muscle, fat, heart, brain, bone, bone marrow, prostate, pancreas, and tumor were harvested, weighed, and counted in a γ-counter. The percentage injected dose per gram of tissue (%ID/g) was determined by decay correction of the [^18F]talazoparib for each sample and then normalized by the standard injected radiotracer dose and the sample weight.

Results on five compounds are retold here after paper PMC8157854, “Radiosynthesis and Evaluation of Talazoparib and Its Derivatives as PARP-1-Targeting Agents” (Biomedicines, 2021).

What is called Ki is a dissociation constant, usually derived from enzyme kinetics or from competition with a known ligand.

Chain of PARP-1 (P09874 whole entry): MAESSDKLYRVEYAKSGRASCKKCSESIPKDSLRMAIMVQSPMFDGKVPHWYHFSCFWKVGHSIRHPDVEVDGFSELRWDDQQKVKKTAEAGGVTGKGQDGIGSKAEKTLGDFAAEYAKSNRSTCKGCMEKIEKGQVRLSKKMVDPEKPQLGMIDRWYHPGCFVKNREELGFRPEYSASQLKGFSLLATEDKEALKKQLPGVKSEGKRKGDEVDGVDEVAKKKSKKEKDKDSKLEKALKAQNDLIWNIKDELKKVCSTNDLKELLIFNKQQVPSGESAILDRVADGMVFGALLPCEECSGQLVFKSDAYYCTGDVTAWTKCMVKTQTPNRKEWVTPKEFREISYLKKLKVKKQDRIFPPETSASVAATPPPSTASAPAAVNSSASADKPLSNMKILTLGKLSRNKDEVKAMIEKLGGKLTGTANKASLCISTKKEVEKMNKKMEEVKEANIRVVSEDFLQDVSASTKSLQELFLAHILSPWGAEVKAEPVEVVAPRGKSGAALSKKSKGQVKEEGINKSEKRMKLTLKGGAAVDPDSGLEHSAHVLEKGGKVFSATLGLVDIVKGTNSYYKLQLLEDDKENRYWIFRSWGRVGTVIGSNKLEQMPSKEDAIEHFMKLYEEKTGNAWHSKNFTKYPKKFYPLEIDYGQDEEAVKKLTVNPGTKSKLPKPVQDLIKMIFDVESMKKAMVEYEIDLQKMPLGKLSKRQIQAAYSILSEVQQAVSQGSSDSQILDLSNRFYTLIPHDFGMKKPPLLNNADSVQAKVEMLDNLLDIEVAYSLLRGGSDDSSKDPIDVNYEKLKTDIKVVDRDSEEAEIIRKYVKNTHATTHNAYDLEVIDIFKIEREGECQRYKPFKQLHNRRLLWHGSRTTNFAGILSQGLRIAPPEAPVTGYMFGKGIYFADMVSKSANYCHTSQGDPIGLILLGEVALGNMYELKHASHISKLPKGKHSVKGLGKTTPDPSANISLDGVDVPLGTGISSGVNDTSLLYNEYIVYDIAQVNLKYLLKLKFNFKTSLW
From the text for PARP-1: After the reaction was completed, the cells were washed once with ice-cold PBS and the bound radioactivity was counted and analyzed as described above.
Competitive dissociation constants (Ki values) were derived from the Cheng and Prussoff equation [24]: Ki=IC50/1+Lt/Kd
Data from competitive binding were transformed to determine the pseudo-Hill coefficient, n′H, using the following equation: logBs/B0−Bs=n^′HlogI−n^′HlogIC50, in which the negative of the Hill slope, n′H, can be readily calculated by a linear regression of plotting logBs/B0−Bs vs. logI , as we published [22, 25].

As for `Cn1ncnc1[C@H]1c2n[nH]c(=O)c3cc(F)cc(c23)N[C@@H]1c1ccc(F)cc1` [3a″, (8S,9R)-5-Fluoro-8-(4-fluorophenyl)-9-(1-methyl-1H-1,2,4-triazol-5-yl)-2,7,8,9-tetrahydro-3H-pyrido[4,3,2-de]phthalazin-3-one], the P-glycoprotein substrate result in the data set on P-glycoprotein (P-gp) is “substrate of P-glycoprotein (P-gp)”. Moreover, in the data set on intratumoral PAR, the “intratumoral PAR concentration” value was “significantly attenuated”.
Turning to `Cn1ncnc1C1c2n[nH]c(=O)c3cc(F)cc(c23)NC1c1ccc(Br)cc1` (centres unmarked) [Compound 3b, 8-(4-bromophenyl)-5-fluoro-9-(1-methyl-1H-1,2,4-triazol-5-yl)-2,7,8,9-tetrahydro-3H-pyrido[4,3,2-de]phthalazin-3-one], at PARP-1, the inhibition constant (Ki) was determined as 1.92 ± 0.41 nM and the “pseudoHill coefficient n′H” value is listed as 1.24 ± 0.24.
Take `Cn1ncnc1C1c2n[nH]c(=O)c3cc(F)cc(c23)NC1c1ccc(I)cc1` (centres unmarked) [Compound 3c, 8-(4-iodophenyl)-5-fluoro-9-(1-methyl-1H-1,2,4-triazol-5-yl)-2,7,8,9-tetrahydro-3H-pyrido[4,3,2-de]phthalazin-3-one]: at PARP-1, the affinity corresponds to a Ki of 1.73 ± 0.43 nM and the “pseudoHill coefficient n′H” value was determined as 1.01 ± 0.20.
At PARP-1, `CCN1CCC[C@H]1CNC(=O)c1c(O)c(Cl)cc(Cl)c1OC` [Raclopride, reference compound] came in with an inhibitory constant (Ki) of over 20000 nM. On PARP-1 (U251MG cells, 0.1 nM to 1 µM), the “displacement of [3H]WC-DZ” value was “No apparent displacement”.
For `Cn1ncnc1[C@H]1c2n[nH]c(=O)c3cc(F)cc(c23)N[C@@H]1c1ccc([18F])cc1` [[^18F]talazoparib], the tumor uptake in the data set on PC-3 prostate tumors (4 h post-injection, i.v., SCID mice) was determined as 3.78 ± 0.55 %ID/gram; in the data set on PC-3 prostate tumors (8 h post-injection, i.v., SCID mice) it was 4.52 ± 0.32 %ID/gram. Moreover, the “uptake in liver, spleen, kidney, and pancreas” value in the data set on PC-3 prostate tumors (after 4 h, only slightly reduced at 8 h) is on record as “High uptake”. In the data set on PC-3 prostate tumors (at 4 and 8 h), the “uptake in bone marrow” value is on record as “high”. For the same compound, in the data set on PC-3 prostate tumors (blood, i.v., SCID mice), the “time for clearance of radioactivity from the blood” value is reported as at most 4 h. The compound also had a brain uptake with PC-3 prostate tumors (brain, 4 h post-injection, i.v., SCID mice) of 0.05 ± 0.01 %ID/gram.
